# Measurements taken from US9328111B2, “Substituted cycloocta[5,6]pyrido[4,3,2-de]phthalazines as PARP inhibitors” (BeiGene Ltd., priority 2011, dated 2016).
# What was measured:
# [1] = system: PARP PARylation in HeLa cells; assay: PARylation assay in HeLa cells after H2O2; format: cell-based; conditions: Homo sapiens, 200 μM H2O2
# Method: HeLa cells were seeded into a 96-well plate with clear bottom and black wall at an initial concentration of 5000 cells/well in culture medium (100 μL of DMEM containing 10% FBS, 0.1 mg/mL penicillin-streptomycin, and 2 mML-glutamine). The plates were incubated for 4 h at 37° C. under 5% CO2 atmosphere, and then compounds were added with serial dilutions over eight points over a 0.01 nM-10 μM final concentration range in 0.1% DMSO/culture medium. The plate was then incubated for 18 h at 37° C. in 5% CO2. Then DNA damage was provoked by addition of 60 μL of H2O2 solution in PBS (final concentration 200 μM). As a negative control, cells untreated with H2O2 were used. The plate was kept at 37° C. for 5 min. Then the medium was gently removed by plate inversion, and the cells were fixed by addition of ice-cold MeOH (100 μL/well) and kept at −20° C. for 20 min. After removal of the fixative by plate inversion and washing 10 times with PBS (120 μL), the detection buffer (50 μL/well, containing PBS, Tween (0.1%), and BSA (1 mg/mL)) together with the primary PAR mAb (Alexis ALX-804-220, 1:2000), the secondary anti-mouse Alexa Fluor 488 antibody (MolecularProbes A11029, 1:2000), and nuclear dye DAPI (Molecular Probes D3571, 150 nM) were added. Following overnight incubation at 4° C. in the dark, removal of the solution, and washing 6 times with PBS (120 μL), the plate was read on an ArrayScan VTI (ThermoFisher). Monitoring for PAR polymer was by detection of Alexa488 at XF100_485_20, exposure time of 0.05 s, and identification of the nuclei was by tracking DAPI with XF100_386_23, exposure time of 0.01 s. The mean value of total intensity of cells was calculated by measuring the average of total intensity of nuclei over the total number of DAPI-labeled nuclei. The EC50 was determined on the basis of the residual enzyme activity in the presence of increasing PARPi concentration.
# Tankyrase-2 = Tankyrase-2 (Homo sapiens (Human), UniProt Q9H2K2); assay: biochemical; conditions: read-out: Tankyrase-2 Inhibition @ 50 nM
# Sequence of Tankyrase-2 (Q9H2K2 whole entry): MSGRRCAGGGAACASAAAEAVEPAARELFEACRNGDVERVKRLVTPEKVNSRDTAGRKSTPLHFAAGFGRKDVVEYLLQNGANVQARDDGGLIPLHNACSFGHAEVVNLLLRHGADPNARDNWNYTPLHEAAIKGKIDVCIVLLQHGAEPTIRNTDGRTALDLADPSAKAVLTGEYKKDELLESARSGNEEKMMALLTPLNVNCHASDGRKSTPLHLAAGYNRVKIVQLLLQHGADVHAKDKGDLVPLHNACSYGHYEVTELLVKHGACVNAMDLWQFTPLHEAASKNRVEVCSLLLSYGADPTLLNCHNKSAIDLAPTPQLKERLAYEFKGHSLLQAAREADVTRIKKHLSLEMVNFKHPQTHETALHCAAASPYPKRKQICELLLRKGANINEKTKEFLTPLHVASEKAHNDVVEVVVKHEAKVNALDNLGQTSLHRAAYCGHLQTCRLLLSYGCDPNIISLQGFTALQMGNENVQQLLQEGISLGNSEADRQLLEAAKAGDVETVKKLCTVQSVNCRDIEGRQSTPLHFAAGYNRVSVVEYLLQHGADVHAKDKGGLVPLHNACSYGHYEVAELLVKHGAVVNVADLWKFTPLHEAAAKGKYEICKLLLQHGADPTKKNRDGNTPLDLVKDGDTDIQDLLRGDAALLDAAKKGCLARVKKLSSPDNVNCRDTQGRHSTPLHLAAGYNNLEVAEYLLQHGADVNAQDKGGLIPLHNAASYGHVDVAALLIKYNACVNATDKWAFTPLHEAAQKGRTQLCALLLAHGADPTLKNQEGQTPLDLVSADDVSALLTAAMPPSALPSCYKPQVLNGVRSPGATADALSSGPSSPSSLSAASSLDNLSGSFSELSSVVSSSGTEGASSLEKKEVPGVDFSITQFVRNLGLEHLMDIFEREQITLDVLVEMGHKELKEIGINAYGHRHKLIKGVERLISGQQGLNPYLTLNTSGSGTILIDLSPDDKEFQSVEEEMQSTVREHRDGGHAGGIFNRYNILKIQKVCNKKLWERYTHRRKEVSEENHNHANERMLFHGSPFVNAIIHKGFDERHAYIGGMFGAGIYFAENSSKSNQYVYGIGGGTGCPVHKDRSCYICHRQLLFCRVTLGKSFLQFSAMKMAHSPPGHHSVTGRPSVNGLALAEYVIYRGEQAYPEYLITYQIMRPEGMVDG
SMILES,EC50 [1] [nM],inhibition at 0.05 µM (Tankyrase-2) [%]
"O=c1[nH]nc2c3c(cccc13)NC1=C2CCCCC1 [Example 4, 7,8,9,10,11,12-Hexahydrocyclohepta[5,6]pyrido[4,3,2-de]phthalazin-3(2H)-one]",0.75,
"O=c1[nH]nc2c3c(cccc13)NC1=C2CCCC1 [Example 2, 8,9,10,11-Tetrahydro-2H-pyridazino[5,4,3-kl]acridin-3 (7H)-one]",1.2,
"CC(C)(C)OC(=O)N1CCC2=C(C1)Nc1cccc3c(=O)[nH]nc2c13 [Example 13, Tert-butyl 3-oxo-7,8,10,11-tetrahydro-2H-phthalazino[8,1-bc][1,7]naphthyridine-9(3H)-carboxylate]",0.7,
"O=c1[nH]nc2c3c(c(Br)ccc13)NC1=C2CCCCC1 [Example 6, 6-Bromo-7,8,9,10,11,12-hexahydrocyclohepta[5,6]pyrido[4,3,2-de]phthalazin-3(2H)-one]",139,
"O=c1[nH]nc2c3c(c(Cl)ccc13)NC1=C2CCCCC1 [Example 8, 6-Chloro-7,8,9,10,11,12-hexahydrocyclohepta[5,6]pyrido[4,3,2-de]phthalazin-3(2H)-one]",43.2,2.3
"O=c1[nH]nc2c3c(c(Cl)ccc13)NC1=C2CCCC1 [Example 9, 6-Chloro-8,9,10,11-tetrahydro-2H-pyridazino[5,4,3-kl]acridin-3(7H)-one]",43.2,14.1
"O=c1[nH]nc2c3c(cccc13)NC1=C2c2ccccc2CC1 [Example 12, 8,9-Dihydro-2H-benzo[a]pyridazino[5,4,3-kl]acridin-3(7H)-one]",6.8,14.3
"CC(C)(NC(=O)OCc1ccccc1)C(=O)N1CCC2=C(C1)Nc1cccc3c(=O)[nH]nc2c13 [Example 15, Benzyl(2-methyl-1-oxo-1-(3-oxo-10,11-dihydro-2H-phthalazino[8,1-bc][1,7]naphthyridin-9(3H,7H,8H)-yl)propan-2-yl)carbamate]",269,
"O=c1[nH]nc2c3c(cccc13)NC1=C2CCC1 [Example 10, 7,8,9,10-Tetrahydrocyclopenta[5,6]pyrido[4,3,2-de]phthalazin-3(2H)-one]",4.6,
"O=c1[nH]nc2c3c(cccc13)NC1=C2CCNC1 [Example 14, 8,9,10,11-Tetrahydro-2H-phthalazino[8,1-bc][1,7]naphthyridin-3 (7H)-one]",14,
"CC1(C)CCC2=C(C1)c1n[nH]c(=O)c3cccc(c13)N2 [Example 1, 10,10-Dimethyl-8,9,10,11-tetrahydro-2H-pyridazino[5,4,3-kl]acridin-3(7H)-one]",0.8,
"O=c1[nH]nc2c3c(cccc13)NC1=C2CCCCCC1 [Example 3, 8,9,10,11,12,13-Hexahydro-2H-cycloocta[5,6]pyrido[4,3,2-de]phthalazin-3(7H)-one]",0.6,
"O=c1[nH]nc2c3c(cccc13)NC1=C2CCN(Cc2ccccc2)C1 [Example 18, 9-benzyl-8,9,10,11-tetrahydro-2H-phthalazino[8,1-bc][1,7]naphthyridin-3(7H)-one]",9.7,
"CC1(C(=O)N2CCC3=C(C2)Nc2cccc4c(=O)[nH]nc3c24)CC1 [Example 16, 9-(1-Methylcyclopropanecarbonyl)-8,9,10,11-tetrahydro-2H-phthalazino[8,1-bc][1,7]naphthyridin-3(7H)-one]",5.4,
"O=c1[nH]nc2c3c(c(Br)ccc13)NC1=C2CCCC1 [Example 7, 6-Bromo-8,9,10,11-tetrahydro-2H-pyridazino[5,4,3-kl]acridin-3(7H)-one]",32,
"Cc1ccc2c(=O)[nH]nc3c2c1NC1=C3CCCC1 [Example 5, 6-Methyl-8,9,10,11-tetrahydro-2H-pyridazino[5,4,3-kl]acridin-3(7H)-one]",477,
"CC1(C)C(C(=O)N2CCC3=C(C2)Nc2cccc4c(=O)[nH]nc3c24)C1(C)C [Example 17, 9-(2,2,3,3-Tetramethylcyclopropanecarbonyl)-8,9,10,11-tetrahydro-2H-phthalazino[8,1-bc][1,7]naphthyridin-3(7H)-one]",0.9,
